Results reported in US9314472B2, “Treatment and prevention of mastitis” (BRIGHAM YOUNG UNIVERSITY, priority 2012, dated 2016).
Where a name gives a salt, the structure may show the parent alone.

What was measured:
[1] = test system: combined gram positive and gram negative bacteria; test: CSA-44/saline formulation study, intramammary treatment of clinical mastitis, all cases; format: in vivo, lactating dairy cattle; conditions: for cure rate for all mastitis cases: CSA-44 120 mg three times or cephapirin sodium 200 mg two times, intramammary, 24-hour interval, cured = no clinical signs, visibly normal milk, negative milk culture 11 days post-treatment; for % Cure / Cure (number) / Not Cure (number): combined gram positive and gram negative, CSA-44 120 mg x3 or cephapirin sodium 200 mg x2 intramammary, 11 days post-treatment
Experimental: (§1) A second dose characterization study was conducted using a non-final (saline) formulation of CSA-44 hydrochloride. The study enabled the selection of a dose to be used in the dose confirmation (field) study, which was conducted using the saline formulation of CSA-44 hydrochloride.
(§2) The objective of this study was to evaluate the effectiveness of intramammary administered CSA-44, as a saline based formulation, for the treatment of clinical mastitis in lactating dairy cows.
(§3) The objective was to evaluate the effectiveness of intramammary infusion of CSA-44 hydrochloride sterile suspension three times at a 24-hour interval at 120.0 mg dosage in the affected quarter in comparison to a negative control or 200 mg of cephapirin sodium activity in a stable peanut oil gel for the treatment of clinical mastitis in lactating dairy cattle.
(§4) A total of 151 cows from 2 herds were enrolled. Cows were enrolled in the study when they had visually abnormal milk (clots, flakes, or watery secretion) or if udder swelling, heat, pain or redness were present and milk was not yet visually abnormal, but the California Mastitis Test (CMT) gave results of 2 or greater. A pre-treatment milk sample was obtained from each affected quarter(s) and cultured for the presence of organisms associated with mastitis; the culture data were not available prior to treatment assignments.
(§5) Cows were assigned in blocks of three to receive either 120 mg CSA-44 HCl, 200 mg cephapirin sodium, or no treatment. Enrollment was restricted to cows with one quarter affected with clinical mastitis.
(§6) CSA-44 (120 mg) or cephapirin sodium (200 mg) was administered as an intramammary infusion three times or two times, respectively, at a 24-hour interval beginning on the day of enrollment (Day 0). Cows assigned to the control group were left untreated. […]. Cows in their second or greater lactation, with an elevated somatic cell count (SCC) and either a positive milk culture for a mastitis pathogen or signs of clinical mastitis were assigned to one of three treatment groups. A quarter was considered cured if there were no clinical signs of mastitis, visibly normal milk, and a negative milk culture 11 days post-treatment. Using these criteria, cure rates for all mastitis cases were 28.0% (Control-0 mg), 63.0% (cephapirin sodium, 200 mg), and 75.0% (CSA-44, 120 mg).
Test data for combined gram positive and gram negative bacteria are set forth in Table 3 below and graphically illustrated in FIG. 2C.

gram positive bacteria = test: CSA-44/saline formulation study, intramammary treatment of clinical mastitis, gram positive; format: in vivo, lactating dairy cattle; conditions: CSA-44 120 mg x3 or cephapirin sodium 200 mg x2 intramammary, 11 days post-treatment
Experimental: as §1, §2, §3, §4, §5, §6
Test data for gram positive bacteria are set forth in Table 1 below and graphically illustrated in FIG. 2A.

gram negative bacteria = test: CSA-44/saline formulation study, intramammary treatment of clinical mastitis, gram negative; format: in vivo, lactating dairy cattle; conditions: CSA-44 120 mg x3 or cephapirin sodium 200 mg x2 intramammary, 11 days post-treatment
Experimental: as §1, §2, §3, §4, §5, §6
Test data for gram negative bacteria are set forth in Table 2 below and graphically illustrated in FIG. 2B.

Escherichia coli = test: Dose characterization study, CSA-44/propylene glycol formulation, intramammary treatment of clinical mastitis; format: in vivo, lactating dairy cows; conditions: 60 mg CSA-44 per quarter, infused eight to ten times at 12-hour interval; cured = no clinical signs 10 days post-treatment, milk visibly normal, SCC < 350,000 cells
Experimental: (§7) A first dose characterization study was conducted using CSA-44 hydrochloride with and without propylene glycol based in the formulation. This study enabled the selection of a dose to be used in a dose confirmation (field) study, which was conducted using two propylene glycol formulations and 60 mg of CSA-44 hydrochloride per 10 ml syringe.
(§8) The objective of this study was to evaluate the effectiveness of intramammary administered CSA-44, with and without propylene glycol as part of the formulation, for the treatment of clinical mastitis in lactating dairy cows.
(§9) A total of 42 cow quarters from Blue Star Dairy (BSD) were enrolled. Cows in their second or greater lactation, with an elevated somatic cell count (SCC) and either a positive milk culture for a mastitis pathogen or signs of clinical mastitis were assigned to one of two treatment groups: 1) ceftiofur hydrochloride administered 2-7 times, per label directions; and 2) 60 mg of CSA-44 per quarter, cows were infused eight to ten times at a 12-hour interval. A quarter was considered cured if there were no clinical signs of mastitis 10 days post-treatment, milk was visibly normal, and somatic cell count (SCC) was less than 350,000 cells. Using these criteria, cure rates for Group CSA treated cows were 87% for Staph. spp. (CNS and Staph. aureus), 90% for Escherichia coli, and 78% for Strep spp. (Streptococcus dysgalactiae, Strep. uberis, and Streptococcus sp).

[2] = test system: Staph. spp. (CNS and Staph. aureus); test: as above; format: in vivo, lactating dairy cows; conditions: 60 mg CSA-44 per quarter, infused eight to ten times at 12-hour interval; cured = no clinical signs 10 days post-treatment, milk visibly normal, SCC < 350,000 cells
Experimental: as §7, §8, §9

[3] = test system: Strep spp. (Streptococcus dysgalactiae, Strep. uberis, and Streptococcus sp); test: as above; format: in vivo, lactating dairy cows; conditions: 60 mg CSA-44 per quarter, infused eight to ten times at 12-hour interval; cured = no clinical signs 10 days post-treatment, milk visibly normal, SCC < 350,000 cells
Experimental: as §7, §8, §9

[4] = Animal safety: udder irritation after intramammary infusion of CSA-44 sterile saline suspension; format: in vivo, lactating female Holstein dairy cattle; conditions: 120 mg
Experimental: The purpose of this example was to study the effects on dairy cows relative to udder irritation of intramammary infusion of a sterile formulation of CSA-44 containing either […] of CSA-44 per 10 mL plastet into both front quarters. More particularly, the study evaluated the safety of intramammary infusion of 120 mg, 150 mg and 200 mg CSA-44 hydrochloride sterile saline (0.9% NaCl) suspension, respectively, in each of two front quarters daily for three consecutive days with an approximate 24-hour interval between infusions.
Three lactating female Holstein dairy cattle ranging from 2 to 5 years of age and representing low milk producers (13.2 kg to 24.0 kg/day) and high milk producers (25.0 kg to 31.9 kg/day) were used in the study. Cows were enrolled based on the absence of mastitis pathogens, absence of clinical mastitis (normal strip cup and udder palpation), a somatic cell count (SCC) less than or equal to 200,000 per mL, and no edema or teat lesions.
Within each of the lactation/production subgroups (1st lactation high producers, 1st lactation low producers, ≧2nd lactation high producers, or ≧2nd lactation low producers), cows were assigned to receive either three doses of CSA-44 by intramammary infusion. There were no non-treated controls.
Following a 3-day pre-treatment clinical observation and milk sample collection period, animals received their assigned treatment. Measurements and observations continued during the treatment period and through Day 3 (60 hours) post treatment.
A CSA-44 sterile saline suspension (120 mg, 150 mg, or 200 mg) was administered as an intramammary infusion into both front quarters once at a 24-hour interval for three consecutive days. The following clinical and production measures were evaluated for a total of either 14 milkings: appearance of foremilk (strip cup evaluation), physical condition of udder, milk production, and general health.

[5] = Human food safety: total residue study of CSA-44 in bovine milk by HPLC with MS detection; format: in vivo, lactating Holstein cows; conditions: predicted; intramammary 120, 150 or 200 mg daily for three days
Text: The objective of this study was to validate a method for the determination of CSA-44 in bovine milk by HPLC with MS detection. The protocol has been designed to fulfill the requirements outlined in the FDA/CVM Guidance for Industry #208^1. ^1Guidance for Industry #208: Studies to Evaluate the Metabolism and Residue Kinetics of Veterinary Drugs in Food-Producing Animals: Validation of Analytical Methods used in Residue Depletion Studies. VICH GL49. U.S. Department of Health and Human Services, Food and Drug Administration, Center for Veterinary Medicine. Sep. 15, 2011
A GLP-compliant total residue study was conducted in 3 healthy, lactating Holstein cows. Cows tested were in the middle of their 2nd or 3rd lactation. The more specific objective was to evaluate the safety of intramammary infusion of 120, 150 and 200 mg dosages of CSA-44 hydrochloride sterile saline (0.9% NaCl) suspension, respectively, in each of two front quarters daily for three consecutive days with an approximate 24-hour interval between infusions.
Three lactating female Holstein dairy cattle ranging from 2 to 5 years of age and representing low milk producers (13.2 kg to 24.0 kg/day) and high milk producers (25.0 kg to 31.9 kg/day) were used in the study. […]

[6] = test system: coagulase-negative staphylococci, Streptococcus dysgalactae, and Eshcherica coli; conditions: from Freedom Of Information Summary NADA 141-238, sterile suspension of ceftiofur hydrochloride; cited from earlier work
[7] = 150 mg or 200 mg in sterile saline, intramammary into both front quarters, once daily for three consecutive days

| SMILES | cure rate for all mastitis cases [1] [%] | % Cure [1] [%] | Cure (number) [1] | Not Cure (number) [1] | % Cure (gram positive bacteria) [%] | Cure (number) (gram positive bacteria) | Not Cure (number) (gram positive bacteria) | % Cure (gram negative bacteria) [%] | Cure (number) (gram negative bacteria) | Not Cure (number) (gram negative bacteria) | further results |
| --- | --- | --- | --- | --- | --- | --- | --- | --- | --- | --- | --- |
| CC(=O)OCC1=C(C(=O)O)N2C(=O)[C@@H](NC(=O)CSc3ccncc3)[C@H]2SC1 [Cephapirin Sodium, cephapirin sodium, reference compound] | 63.0 | 62 | 32 | 20 | 62 | 21 | 13 | 61 | 11 | 7 |  |
| CCCCCCCCOC(=O)CC[C@@H](C)[C@H]1CC[C@H]2[C@@H]3[C@H](OC(=O)CCN)C[C@@H]4C[C@H](OC(=O)CCN)CC[C@]4(C)[C@H]3C[C@H](OC(=O)CCN)[C@]12C [CSA-44] | 75.0 | 75 | 45 | 15 | 70 | 29 | 12 | 84 | 16 | 3 | cure rate (Escherichia coli): 90%; cure rate [2]: 87%; cure rate [3]: 78%; milk quality appearance and strip cup response during treatment [4, 7]: no change in milk quality; udder physical condition scores, strip cup analyses, milk production (milk weight and percent milk fat) in response to treatment [4, 7]: no overall differences; clinical safety and irritation of mammary tissue ([4]; sterile saline formulation, 150 mg or 200 mg per 10 mL dose, infused once daily for up to three consecutive days): clinically safe and not irritating to the mammary tissue; time until CSA-44 is undetectable in milk [5]: 60 to 72 h; time until residues in the milk are substantially depleted [5]: 24 to 48 h |
| CO/N=C(\C(=O)N[C@@H]1C(=O)N2C(C(=O)O)=C(CSC(=O)c3ccco3)CS[C@H]12)c1csc(N)n1 [Ceftiofur HCl, ceftiofur hydrochloride] |  |  |  |  |  |  |  |  |  |  | % Cure [6]: 70%; Cure (number) [6]: 38; Not Cure (number) [6]: 16 |
